{"source": "patent US7501136B2", "about": "“Deodorant composition” (Kao Corporation, priority 2003, dated 2009)", "origin": "cited, not measured here", "system": "Staphylococcus aureus", "conditions": "against Staphylococcus aureus"}
{"molecule": "Cc1cc(O)ccc1C(C)C", "note": "[isopropyl methylphenol]", "values": [{"measurement": "MIC (Minimum Inhibitory Concentration)", "result": 0.015, "unit": "%"}]}
